The results in this text go back to patent publication US12673050B2, “Compositions and their use for the treatment of A1-antitrypsin deficiency” (Centessa Pharmaceuticals (UK) Limited, priority 2021, dated 2026).

The target of one test is T1, human M A1AT (Homo sapiens, UniProt P01009).
T1 construct: expressed in transfected cells; host or cells: HEK-M cells (HEK-EBNA with M A1AT plasmid)
Kind of test: A1AT cell secretion assay using HEK-M cells (ELISA). As to conditions: 10 μM, 48 h. In kind it is cell-based. As to the method: (§1) HEK-M cells, a human embryonic kidney cell line stably transfected with M A1AT, were plated into 96 well plates (3.0×10^5 cells/ml with 200 μl of media/well) overnight at 37° C. in a humidified atmosphere containing 5% CO2. Following incubation cells were washed with 200 μl serum-free media three times and media was replaced with serum-free media containing either vehicle, 10 μM suberanilohydroxamic acid (SAHA), (S)-1-((2-(trifluoromethyl)phenyl)sulfonyl)piperidine-3-carboxylic acid (at 10 μM) or (R)-1-((2-(trifluoromethyl)phenyl)sulfonyl)piperidine-3-carboxylic acid (at 10 μM) in replicates of six for 48 h in a 37° C. incubator in a final volume of 200 μl. At the end of the incubation step the supernatants were removed from the wells, centrifuged at 1000×g at 4° C. for 10 min and were assayed for human A1AT levels by ELISA (Human Serpin A1/α1 antitrypsin duo set ELISA, R& D Systems, DY1268) per manufacturer's instructions.
(§2) Briefly, a 96 well plate was coated with human A1AT capture antibody overnight at room temperature (1:180 dilution from stock, 100 μl final volume/well). The capture antibody was then removed and wells washed three times with 300 μl wash buffer (0.05% Tween in PBS) and then 200 μl reagent diluent (25% Tween 20 in PBS) was incubated in each well for 1 h at room temperature. Diluted samples, standards (125, 250, 500, 1000, 2000, 4000 and 8000 pg/ml A1AT) or blanks were then added to each well in duplicate and the plates were covered with a plate sealer and left at room temperature for 2 h. […] After which, 50 μl stop solution (2M H2SO4) was added and optical density (OD) of each well was read at 450 nm with 570 nm blank subtracted from each well using a microplate reader. A 4 parameter logistic curve was constructed using GraphPad Prism 7 and A1AT concentrations were determined in each sample by interpolation from a standard curve and multiplying by the appropriate dilution factor.
(§3) The amount of human A1AT secreted from transfected HEK-EBNA cells into the media was measured by ELISA. […]
A general note: ELISA stands for enzyme-linked immunosorbent assay.

The next test concerns the target T2, human Siiyama A1AT (Homo sapiens, UniProt P01009, S77F).
T2 construct: expressed in transfected cells; host or cells: HEK-Siiyama cells (HEK-EBNA with Siiyama A1AT plasmid)
As to the kind of experiment: A1AT cell secretion assay using HEK-Siiyama cells (ELISA). The format is cell-based. As to conditions: 10 μM, 48 h. As to the method: as §1, with “HEK-Siiyama” for “HEK-M”, “the Siiyama A1AT gene,” for “M A1AT,”, “containing” for “containing either”, “(at 1 or” for “(at”, “eight” for “six”, “A1/α1-antitrypsin” for “A1/α1 antitrypsin”
as §2, with “(0.05% Tween 20 in PBS)” for “(0.05% Tween in PBS)”
as §3

Structures are written as SMILES.

T1 sequence (P01009 25-418): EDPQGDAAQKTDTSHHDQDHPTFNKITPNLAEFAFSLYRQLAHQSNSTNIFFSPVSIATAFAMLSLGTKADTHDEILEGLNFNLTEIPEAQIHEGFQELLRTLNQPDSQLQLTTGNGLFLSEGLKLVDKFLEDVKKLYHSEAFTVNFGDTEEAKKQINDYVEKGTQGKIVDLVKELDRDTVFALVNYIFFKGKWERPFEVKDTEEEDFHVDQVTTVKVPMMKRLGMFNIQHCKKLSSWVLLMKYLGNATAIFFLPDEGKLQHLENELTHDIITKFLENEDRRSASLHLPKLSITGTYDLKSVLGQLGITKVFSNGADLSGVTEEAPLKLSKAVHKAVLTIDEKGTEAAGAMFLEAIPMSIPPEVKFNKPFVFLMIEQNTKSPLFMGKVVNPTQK
T2 sequence (P01009 25-418 S77F): as the sequence (P01009 25-418) above, with S53F counted along it

In the case of `O=C(CCCCCCC(=O)Nc1ccccc1)NO` [SAHA, suberanilohydroxamic acid, reference compound], at human M A1AT, the “secretion of human M A1AT into cell supernatant” value is “stimulates an increase in M A1AT secretion”. Also, the “secretion of human Siiyama A1AT into cell supernatant (positive control)” value on human Siiyama A1AT is reported as “stimulates an increase in Siiyama A1AT secretion”.
